# Assay results: ChEMBL document CHEMBL1201862, “PubChem BioAssay data set” (2004)
# Calls of active or inactive are those of the source.
# Key:
# [1] = molecular target: Dual specificity protein kinase CLK4 (Homo sapiens, UniProt Q9HAZ1); format: functional
# [2] = molecular target: Serine/threonine-protein kinase pim-1 (Homo sapiens, UniProt P11309); format: functional
# [3] = molecular target: cAMP-dependent protein kinase catalytic subunit alpha (Homo sapiens, UniProt P17612); format: functional
# [4] = molecular target: Cyclin-dependent kinase 2 (Homo sapiens, UniProt P24941); format: functional;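 also: CDK2 measured as one member of a broad kinome profiling panel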
# [5] = molecular target: Interleukin-1 receptor-associated kinase 4 (Homo sapiens, UniProt Q9NWZ3); format: functional
# Chain of Interleukin-1 receptor-associated kinase 4 (Q9NWZ3 whole entry): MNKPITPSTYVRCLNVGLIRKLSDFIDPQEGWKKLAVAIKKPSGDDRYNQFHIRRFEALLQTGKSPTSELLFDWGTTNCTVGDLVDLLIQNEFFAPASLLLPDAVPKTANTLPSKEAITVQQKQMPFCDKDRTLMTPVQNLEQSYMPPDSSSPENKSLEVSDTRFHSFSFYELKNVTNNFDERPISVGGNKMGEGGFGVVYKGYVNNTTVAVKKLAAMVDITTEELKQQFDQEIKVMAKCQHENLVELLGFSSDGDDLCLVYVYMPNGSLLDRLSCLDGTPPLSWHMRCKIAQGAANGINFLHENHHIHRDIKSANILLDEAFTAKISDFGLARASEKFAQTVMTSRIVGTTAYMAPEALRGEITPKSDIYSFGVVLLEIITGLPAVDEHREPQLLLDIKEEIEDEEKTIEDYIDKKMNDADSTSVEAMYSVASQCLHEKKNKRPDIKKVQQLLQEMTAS
# [6] = molecular target: Homeodomain-interacting protein kinase 2 (Homo sapiens, UniProt Q9H2X6); format: functional;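 also: measured within a kinome-wide kinase profiling panel, HIPK2 being one panel member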
# [7] = molecular target: Glycogen synthase kinase-3 beta (Homo sapiens, UniProt P49841); format: functional;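 also: value comes from a broad kinome profiling panel, with GSK3B as the panel member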
# Chain of Glycogen synthase kinase-3 beta (P49841 whole entry): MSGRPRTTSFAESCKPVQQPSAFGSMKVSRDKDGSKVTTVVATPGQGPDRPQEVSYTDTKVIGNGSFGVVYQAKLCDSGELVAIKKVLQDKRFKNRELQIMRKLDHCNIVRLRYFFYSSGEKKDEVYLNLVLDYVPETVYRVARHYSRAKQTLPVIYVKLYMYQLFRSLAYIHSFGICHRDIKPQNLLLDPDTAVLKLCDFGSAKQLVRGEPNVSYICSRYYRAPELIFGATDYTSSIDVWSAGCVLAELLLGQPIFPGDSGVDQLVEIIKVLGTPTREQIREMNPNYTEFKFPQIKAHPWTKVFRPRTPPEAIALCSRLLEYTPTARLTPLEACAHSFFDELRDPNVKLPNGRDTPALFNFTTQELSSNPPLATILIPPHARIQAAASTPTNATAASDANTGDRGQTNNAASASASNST
# [8] = molecular target: Mitogen-activated protein kinase kinase kinase kinase 4 (Homo sapiens, UniProt O95819); format: functional
# Chain of Mitogen-activated protein kinase kinase kinase kinase 4 (O95819 whole entry): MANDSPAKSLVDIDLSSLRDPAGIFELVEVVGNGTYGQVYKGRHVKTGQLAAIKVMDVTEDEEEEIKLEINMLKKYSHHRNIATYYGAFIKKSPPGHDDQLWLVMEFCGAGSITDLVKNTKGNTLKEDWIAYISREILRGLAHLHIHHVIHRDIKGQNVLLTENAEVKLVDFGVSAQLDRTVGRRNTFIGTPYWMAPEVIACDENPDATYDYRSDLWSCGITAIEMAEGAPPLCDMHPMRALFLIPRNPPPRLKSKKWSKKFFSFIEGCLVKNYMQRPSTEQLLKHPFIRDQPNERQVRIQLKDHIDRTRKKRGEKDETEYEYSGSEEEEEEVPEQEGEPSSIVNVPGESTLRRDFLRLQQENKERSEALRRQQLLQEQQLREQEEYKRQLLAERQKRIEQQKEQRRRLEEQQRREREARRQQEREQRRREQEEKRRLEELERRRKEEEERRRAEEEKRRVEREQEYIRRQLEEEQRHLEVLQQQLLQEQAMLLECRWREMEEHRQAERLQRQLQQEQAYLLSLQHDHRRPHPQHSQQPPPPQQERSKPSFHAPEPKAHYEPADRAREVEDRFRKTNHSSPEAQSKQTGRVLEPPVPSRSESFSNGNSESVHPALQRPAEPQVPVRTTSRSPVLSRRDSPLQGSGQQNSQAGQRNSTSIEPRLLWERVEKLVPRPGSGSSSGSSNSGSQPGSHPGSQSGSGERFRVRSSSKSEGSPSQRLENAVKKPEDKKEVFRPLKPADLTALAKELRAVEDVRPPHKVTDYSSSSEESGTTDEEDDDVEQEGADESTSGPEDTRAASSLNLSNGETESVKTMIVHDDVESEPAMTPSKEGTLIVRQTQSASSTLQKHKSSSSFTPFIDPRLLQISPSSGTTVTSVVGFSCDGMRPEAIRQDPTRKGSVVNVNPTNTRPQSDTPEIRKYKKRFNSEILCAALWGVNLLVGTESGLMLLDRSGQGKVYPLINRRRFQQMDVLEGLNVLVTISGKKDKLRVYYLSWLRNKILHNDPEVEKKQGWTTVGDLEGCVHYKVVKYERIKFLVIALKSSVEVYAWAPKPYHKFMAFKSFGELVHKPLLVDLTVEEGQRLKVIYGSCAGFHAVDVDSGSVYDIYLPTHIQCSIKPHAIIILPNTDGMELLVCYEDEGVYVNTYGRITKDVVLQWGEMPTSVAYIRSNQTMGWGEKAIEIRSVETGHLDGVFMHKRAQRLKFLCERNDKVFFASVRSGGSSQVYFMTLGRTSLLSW
# [9] = molecular target: Cell division cycle 7-related protein kinase (Homo sapiens, UniProt O00311); format: functional;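 also: value obtained from a kinome-wide kinase panel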
# Chain of Cell division cycle 7-related protein kinase (O00311 whole entry): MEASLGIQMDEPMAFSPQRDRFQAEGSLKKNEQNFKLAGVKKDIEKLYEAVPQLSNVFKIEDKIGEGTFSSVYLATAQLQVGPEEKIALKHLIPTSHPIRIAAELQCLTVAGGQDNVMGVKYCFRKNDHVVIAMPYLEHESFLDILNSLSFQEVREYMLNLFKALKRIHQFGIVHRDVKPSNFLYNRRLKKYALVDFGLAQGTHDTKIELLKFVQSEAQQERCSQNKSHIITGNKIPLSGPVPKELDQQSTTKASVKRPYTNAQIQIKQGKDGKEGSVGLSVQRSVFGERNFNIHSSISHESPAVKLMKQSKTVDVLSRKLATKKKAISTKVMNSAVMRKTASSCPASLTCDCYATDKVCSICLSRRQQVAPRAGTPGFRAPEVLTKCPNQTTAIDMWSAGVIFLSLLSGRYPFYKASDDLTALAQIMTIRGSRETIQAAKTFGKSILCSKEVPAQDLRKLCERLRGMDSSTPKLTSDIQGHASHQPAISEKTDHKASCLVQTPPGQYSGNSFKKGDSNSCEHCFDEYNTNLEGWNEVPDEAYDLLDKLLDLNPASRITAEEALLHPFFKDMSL
# [10] = molecular target: T1, High affinity choline transporter 1 (Homo sapiens, UniProt Q9GZV3); test: CHT activators, dose response, cell-based, 10-point CRC, membrane potential dye (AID 602376); format: functional
# T1 sequence (Q9GZV3 whole entry): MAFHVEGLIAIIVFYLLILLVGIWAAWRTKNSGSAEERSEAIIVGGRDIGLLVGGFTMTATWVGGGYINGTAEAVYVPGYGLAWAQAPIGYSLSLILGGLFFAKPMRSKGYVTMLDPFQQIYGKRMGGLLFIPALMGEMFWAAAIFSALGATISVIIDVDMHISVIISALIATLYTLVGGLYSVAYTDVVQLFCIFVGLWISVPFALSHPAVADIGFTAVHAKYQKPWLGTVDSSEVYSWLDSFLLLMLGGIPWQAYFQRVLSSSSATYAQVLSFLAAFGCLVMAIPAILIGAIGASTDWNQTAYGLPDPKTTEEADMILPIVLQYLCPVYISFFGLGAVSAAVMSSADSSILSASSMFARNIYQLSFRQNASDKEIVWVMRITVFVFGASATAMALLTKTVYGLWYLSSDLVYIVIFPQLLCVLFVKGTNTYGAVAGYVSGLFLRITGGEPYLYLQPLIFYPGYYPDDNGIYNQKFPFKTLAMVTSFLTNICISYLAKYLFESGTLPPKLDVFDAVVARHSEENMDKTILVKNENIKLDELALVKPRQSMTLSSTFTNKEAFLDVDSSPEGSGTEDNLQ
# [11] = molecular target: T2, Sentrin-specific protease 8 (Homo sapiens, UniProt Q96LD8); format: functional
# T2 sequence (Q96LD8 whole entry): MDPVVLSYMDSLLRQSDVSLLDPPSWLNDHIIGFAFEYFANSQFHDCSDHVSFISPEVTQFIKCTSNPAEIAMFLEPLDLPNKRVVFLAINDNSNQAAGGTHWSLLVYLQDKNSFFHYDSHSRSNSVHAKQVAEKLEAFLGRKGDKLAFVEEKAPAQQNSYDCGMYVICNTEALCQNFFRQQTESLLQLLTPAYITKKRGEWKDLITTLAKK
# [12] = molecular target: T3, DNA repair protein RAD52 homolog (Homo sapiens, UniProt P43351); format: functional, biochemical
# T3 sequence (P43351 whole entry): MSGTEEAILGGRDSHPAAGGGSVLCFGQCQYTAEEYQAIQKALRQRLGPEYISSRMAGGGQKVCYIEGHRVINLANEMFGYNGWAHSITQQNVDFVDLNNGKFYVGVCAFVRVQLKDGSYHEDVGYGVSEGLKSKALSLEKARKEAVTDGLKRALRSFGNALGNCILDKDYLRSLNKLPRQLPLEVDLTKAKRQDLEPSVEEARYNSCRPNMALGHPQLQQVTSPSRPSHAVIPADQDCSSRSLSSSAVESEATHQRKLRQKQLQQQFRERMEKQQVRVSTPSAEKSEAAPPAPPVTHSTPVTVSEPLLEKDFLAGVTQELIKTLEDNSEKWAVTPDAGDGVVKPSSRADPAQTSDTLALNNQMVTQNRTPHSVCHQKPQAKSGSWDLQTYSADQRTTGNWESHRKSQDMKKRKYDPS
# [13] = AlphaScreen signal interference compounds, dose response, artefact control for ARNT-TACC3 interaction inhibitor project, biochemical, luminescence, cherry-pick (AID 651705); format: functional;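 also: AlphaScreen bead proximity signal that flags compounds interfering with the detection technology; potency reflects signal decrease which marks the compound as an assay artifact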
# [14] = molecular target: Glutathione-S-transferase (Schistosoma japonicum, UniProt Q26513); test: biotin-GST/anti-GST TR-FRET signal inhibitors, dose response, artefact control for Vif-APOBEC3G degradation inhibitor project, biochemical (AID 1117362); format: functional
# Chain of Glutathione-S-transferase (Q26513 whole entry): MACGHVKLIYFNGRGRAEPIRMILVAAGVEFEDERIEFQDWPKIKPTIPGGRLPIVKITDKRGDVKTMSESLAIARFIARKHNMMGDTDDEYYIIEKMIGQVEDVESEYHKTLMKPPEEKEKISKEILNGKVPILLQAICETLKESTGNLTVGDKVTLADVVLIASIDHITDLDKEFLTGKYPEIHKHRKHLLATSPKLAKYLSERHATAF
# [15] = molecular target: T4, Caspase-3 (Homo sapiens, UniProt P42574); test: Dose-response confirmation of uHTS inhibitor hits of Sentrin-Specific Protease 8 in a Caspase-3 Fluorescence assay.; format: functional
# T4 sequence (P42574 whole entry): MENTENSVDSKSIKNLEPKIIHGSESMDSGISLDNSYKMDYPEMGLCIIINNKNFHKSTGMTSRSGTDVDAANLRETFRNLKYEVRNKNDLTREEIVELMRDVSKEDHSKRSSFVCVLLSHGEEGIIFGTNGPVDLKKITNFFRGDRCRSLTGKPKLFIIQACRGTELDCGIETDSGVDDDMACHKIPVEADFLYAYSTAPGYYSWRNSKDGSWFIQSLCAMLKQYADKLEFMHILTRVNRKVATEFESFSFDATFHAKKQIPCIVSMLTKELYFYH
# [16] = molecular target: Genome polyprotein (dengue virus type 2, UniProt P29990); test: Dengue-2 NS5 methyltransferase inhibitors, primary screen, biochemical, confirmation dose response (AID 588689); format: functional
# [17] = THP-1 cell cytotoxicity, dose response, cytotoxicity control for Vif-APOBEC3G degradation inhibitor project, THP-1 cells (AID 1117359); format: functional; settings: Human immunodeficiency virus 1, THP-1
# [18] = molecular target: Latent membrane protein 1 (Human herpesvirus 4 (strain B95-8), UniProt P03230); test: TES1-eGFP NF-kB reporter inhibition versus Tet-On dsRED, dose response, selectivity assay for LMP1 NF-kB inhibitor project, imaging, HEK293T, dual-color eGFP/dsRED, cherry-picks (AID 588398); format: functional, cell-based
# Chain of Latent membrane protein 1 (P03230 whole entry): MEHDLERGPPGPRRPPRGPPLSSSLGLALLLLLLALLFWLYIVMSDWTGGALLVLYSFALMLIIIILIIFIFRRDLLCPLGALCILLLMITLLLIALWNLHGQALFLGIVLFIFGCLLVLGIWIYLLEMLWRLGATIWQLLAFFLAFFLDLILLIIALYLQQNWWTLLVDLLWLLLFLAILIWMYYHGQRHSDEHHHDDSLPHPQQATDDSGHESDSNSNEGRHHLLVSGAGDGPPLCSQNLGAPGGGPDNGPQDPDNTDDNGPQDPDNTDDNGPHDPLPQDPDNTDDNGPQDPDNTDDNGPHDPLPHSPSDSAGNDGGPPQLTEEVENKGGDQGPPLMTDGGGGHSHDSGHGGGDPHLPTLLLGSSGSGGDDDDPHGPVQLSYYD
# [19] = molecular target: T2, Sentrin-specific protease 8; format: functional; remark: listed apart in the source
# [20] = microbe, parasite or virus in culture; format: functional; settings: Mycobacterium tuberculosis
# [21] = system: INS1; test: beta cell apoptosis inhibitors, cytokine rescue, dose response, luminescence, retest (AID 449756); format: functional, cell-based; settings: Rattus norvegicus;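 also: cell death triggered by IL-1 beta plus TNF-alpha plus IFN-gamma mixture; protective hits raise ATP signal compared with cytokine alone wells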
# [22] = molecular target: Botulinum neurotoxin type A (Clostridium botulinum (strain Hall / ATCC 3502 / NCTC 13319 / Type A), UniProt P0DPI1); test: High-throughput multiplex microsphere dose response for inhibitors of toxin protease, specifically Botulinum neurotoxin light chain A protease, compounds from Cherry Pick 01.; format: functional; settings: read-out: EC50_MICROM
# Chain of Botulinum neurotoxin type A (P0DPI1 2-448 limits assumed): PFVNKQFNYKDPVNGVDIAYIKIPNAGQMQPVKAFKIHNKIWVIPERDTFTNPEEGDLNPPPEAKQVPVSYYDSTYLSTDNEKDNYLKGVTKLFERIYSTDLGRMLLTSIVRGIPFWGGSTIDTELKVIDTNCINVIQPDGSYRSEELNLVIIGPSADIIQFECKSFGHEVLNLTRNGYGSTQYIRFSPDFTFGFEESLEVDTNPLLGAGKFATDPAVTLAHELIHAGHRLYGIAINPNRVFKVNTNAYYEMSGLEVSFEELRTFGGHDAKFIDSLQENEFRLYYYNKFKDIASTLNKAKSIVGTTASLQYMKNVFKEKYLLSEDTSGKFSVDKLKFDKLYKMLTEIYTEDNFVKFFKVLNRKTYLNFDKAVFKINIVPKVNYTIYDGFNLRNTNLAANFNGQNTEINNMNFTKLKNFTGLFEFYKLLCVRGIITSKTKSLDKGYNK
# Chain of Dual specificity protein kinase CLK4 (Q9HAZ1 whole entry): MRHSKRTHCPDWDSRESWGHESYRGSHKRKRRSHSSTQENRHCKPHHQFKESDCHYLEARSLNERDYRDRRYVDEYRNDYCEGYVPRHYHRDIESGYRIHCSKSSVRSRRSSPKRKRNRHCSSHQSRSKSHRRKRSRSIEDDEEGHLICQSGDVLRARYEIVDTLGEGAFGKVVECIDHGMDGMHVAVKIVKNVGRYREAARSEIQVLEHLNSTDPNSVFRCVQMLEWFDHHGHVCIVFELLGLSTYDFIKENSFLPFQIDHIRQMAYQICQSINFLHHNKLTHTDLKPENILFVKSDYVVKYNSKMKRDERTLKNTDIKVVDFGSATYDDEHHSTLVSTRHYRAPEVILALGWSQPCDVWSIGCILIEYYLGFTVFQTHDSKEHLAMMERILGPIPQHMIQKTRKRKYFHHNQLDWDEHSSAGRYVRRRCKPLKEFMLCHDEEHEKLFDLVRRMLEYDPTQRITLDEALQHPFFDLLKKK
# Chain of Serine/threonine-protein kinase pim-1 (P11309 whole entry): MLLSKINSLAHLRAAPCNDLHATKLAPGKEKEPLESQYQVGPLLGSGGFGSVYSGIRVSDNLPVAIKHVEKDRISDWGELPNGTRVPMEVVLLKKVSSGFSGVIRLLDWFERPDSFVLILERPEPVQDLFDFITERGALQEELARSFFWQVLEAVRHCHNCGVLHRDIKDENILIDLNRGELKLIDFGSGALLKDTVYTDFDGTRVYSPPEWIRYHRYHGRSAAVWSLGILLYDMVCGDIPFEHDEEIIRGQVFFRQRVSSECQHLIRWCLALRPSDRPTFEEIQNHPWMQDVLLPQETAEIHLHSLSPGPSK
smiles,measurement,setting,value
Cn1cc(-c2ccccc2)c2nc(-c3ccncc3)cc(=O)n21,Ki,[1],0.0316 µM (active)
same,Ki,[2],2.51 µM (active)
same,Ki,[3],5.01 µM (active)
same,Ki,[4],> 7.94 µM (inactive)
same,Ki,[5],> 10 µM (inactive)
same,Ki,[6],0.1 µM (active)
same,Ki,[7],0.126 µM (active)
same,Ki,[8],1.26 µM (active)
same,Ki,[9],0.0158 µM (active)
CCCCCCCCC1=NCCc2c1[nH]c1ccccc21,EC50,[10],13.7 µM (active)
COc1cc(NCCCCCCN)c2ncccc2c1OC,IC50,[11],0.208 µM (active)
same,AC50,[12],0.87 µM (active)
same,AC50,[13],132 µM (active)
same,IC50,[14],2.53 µM (active)
same,IC50,[15],4.23 µM (active)
same,IC50,[16],> 100 µM (active)
same,CC50,[17],> 40 µM (active)
same,AC50,[18],34.4 µM (active)
same,IC50,[19],0.434 µM (active)
O=c1c(Cl)c2oc3ccccc3nc-2c2ccccc12,CC50,[20],> 40 µM (active)
same,AC50,[21],2.61 µM (active)
same,EC50,[22],12.4 µM (active)
